Legend:
[1] = biological target: T1, p38 MAPK, active phosphomimetic mutant (Homo sapiens, UniProt Q16539, D176A); experiment: degradation of expressed mutant in HEK293T cells (immunoblot); type: cell-based
T1 construct: gene MAPK14; p38 active form expressed in HEK293T cells

[2] = biological target: T2, phosphorylated p38 MAPK (p-p38) (Homo sapiens, UniProt Q16539); experiment: CRBN- and proteasome-dependent degradation in cells (immunoblot DC50); type: cell-based
T2 construct: gene MAPK14; phosphorylated p38 in HEK293T cells
T2 sequence (Q16539 2-360): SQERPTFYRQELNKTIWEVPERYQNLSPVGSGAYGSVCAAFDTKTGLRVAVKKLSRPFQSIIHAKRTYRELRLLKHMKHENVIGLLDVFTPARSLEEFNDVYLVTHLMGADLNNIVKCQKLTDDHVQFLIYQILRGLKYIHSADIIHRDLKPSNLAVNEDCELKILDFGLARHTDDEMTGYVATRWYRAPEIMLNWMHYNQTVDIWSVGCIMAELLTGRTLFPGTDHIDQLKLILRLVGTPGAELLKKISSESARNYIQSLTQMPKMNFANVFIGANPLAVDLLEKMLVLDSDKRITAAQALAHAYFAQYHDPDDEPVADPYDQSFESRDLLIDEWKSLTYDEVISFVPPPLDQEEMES
T2 sequence (Q96SW2 whole entry partner): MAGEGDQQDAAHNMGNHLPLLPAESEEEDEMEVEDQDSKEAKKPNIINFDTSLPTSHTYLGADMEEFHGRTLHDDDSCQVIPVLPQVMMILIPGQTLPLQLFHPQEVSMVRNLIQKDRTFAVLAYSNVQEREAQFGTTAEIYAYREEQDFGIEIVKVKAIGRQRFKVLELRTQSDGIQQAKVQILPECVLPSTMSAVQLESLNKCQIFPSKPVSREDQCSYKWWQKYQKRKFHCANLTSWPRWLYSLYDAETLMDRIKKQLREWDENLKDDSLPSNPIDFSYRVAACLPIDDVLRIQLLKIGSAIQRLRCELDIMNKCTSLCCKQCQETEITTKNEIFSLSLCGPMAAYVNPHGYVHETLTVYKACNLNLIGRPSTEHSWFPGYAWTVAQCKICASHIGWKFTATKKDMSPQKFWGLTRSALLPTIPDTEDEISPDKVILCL

T1 sequence (Q16539 2-360 D176A): as the sequence (Q16539 2-360) above, with D175A counted along it

Cc1ccc(C(=O)NC2CC2)cc1-c1ccc(C(=O)c2ccc(OCCOCCOC(=O)Nc3cccc4c3C(=O)N(C3CCC(=O)NC3=O)C4=O)cc2)cc1 (centres unmarked) [compound 2, PRZ-18002]
degradation of expressed mutant in HEK293T cells (immunoblot) [1]: significant reduction of active p38 mutant (D176A) in preference to wild-type p38
DC50 [2]: 0.093 µM

Source: PMC10037464, “Chemical Knockdown of Phosphorylated p38 Mitogen-Activated Protein Kinase (MAPK) as a Novel Approach for the Treatment of Alzheimer′s Disease” (ACS Central Science, 2023)
